Laboratory results taken from patent US20240316038A1, “APOL1 INHIBITORS AND METHODS OF USE” (Maze Therapeutics, Inc., priority 2021, published 2024).

Columns and labels:
APOL1 G2 [1] = molecular target: T1, APOL1 G2 (Homo sapiens, UniProt O14791, DEL388-389); assay: Rescue of HEK293 cell death caused by overexpression of APOL1 (CellTiter-Glo luminescence), HEK293/T-REx APOL1 G2/clone #2; assay type: cell-based; conditions: reversal of cell death caused by overexpression of APOL1; geometric mean of at least 2 assay runs, † = single assay run (technical duplicate)
T1 construct: expressed in transfected cells; host or cells: HEK293 T-REx clonal lines: HEK T-REx/GCaMP6f/APOL1 G2 K6.3 in A1, HEK293/T-REx APOL1 G2/clone #2 in A2
T1 sequence (O14791 with tags, fused parts or gaps DEL388-389): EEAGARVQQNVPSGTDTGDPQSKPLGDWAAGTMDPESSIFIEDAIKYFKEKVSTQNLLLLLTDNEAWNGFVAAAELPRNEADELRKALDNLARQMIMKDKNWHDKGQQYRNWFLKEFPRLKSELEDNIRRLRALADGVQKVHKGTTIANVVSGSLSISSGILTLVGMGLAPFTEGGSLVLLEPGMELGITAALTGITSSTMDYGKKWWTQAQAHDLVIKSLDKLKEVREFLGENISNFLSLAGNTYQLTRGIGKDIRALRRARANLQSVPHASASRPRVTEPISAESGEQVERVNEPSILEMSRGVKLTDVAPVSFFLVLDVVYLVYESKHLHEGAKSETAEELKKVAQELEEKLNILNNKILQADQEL
Procedure, shortened: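 Rescue EC50s come from four-parameter logistic fits, geometric mean of at least 2 runs on separate days, each in duplicate. Readout: CellTiter-Glo luminescence after 17 h at 37 °C of 5,000 HEK293/T-REx APOL1 G2 clone #2 cells/well, with 6 ng/mL doxycycline to induce APOL1 and 3-fold serial compound dilutions in 0.5% DMSO.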

APOL1 G2 [2] = molecular target: T1, APOL1 G2; assay: APOL1 calcium transport inhibition assay (GCaMP6f calcium influx, FLIPR) in HEK T-REx/GCaMP6f/APOL1 G2 K6.3 cells; assay type: cell-based; conditions: inhibition of APOL1-mediated calcium influx; geometric mean of at least 2 assay runs, † = single assay run (technical duplicate)
Procedure, shortened: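 HEK293 cells stably expressing GCaMP6f, APOL1 G2 induced 6 h with doxycycline (20 ng/mL added), then washed into Ca2+-free Tyrode's buffer pH 7.4. Compounds (8-point dose response) preincubated 10 min at room temperature, then Ca2+ injected to 5 mM final and influx read on FLIPR. AC50 reported as geometric mean of runs.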

Structure (SMILES) | AC50 (APOL1 G2 [2]) [nM] | EC50 (APOL1 G2 [1]) [nM]
CC(Cc1cccc(Cl)c1)NC[C@H](O)COc1ccc(N(C)S(C)(=O)=O)cc1 (single isomer, unassigned) [Compound 96, N-(4-((S)-3-(((R) or (S)-1-(3-chlorophenyl)propan-2-yl)amino)-2-hydroxypropoxy)phe-nyl)-N-methylmethanesulfon-amide] | 3770 | > 30000
CC1CC(COc2ccc(S(C)(=O)=O)cc2)CN1CCc1cccc(Cl)c1 (single isomer, unassigned) [Compound 58, (2S,4S) or (2R,4S) or (2R,4R) or (2S,4R)-1-(3-chlorophenethyl)-2-methyl-4-((4-(methylsulfonyl)phenoxy)methyl)pyrrolidine] | 72.7 | < 41
CS(=O)(=O)c1ccc(OC[C@@H]2CN(CCc3cccc(Cl)c3)CCN2)cc1 [Compound 13, (S)-1-(3-chlorophenethyl)-3-((4-(methylsulfonyl)phenoxy)methyl)piperazine] | 143 | 445
C[C@H]1CN(CCc2cccc(Cl)c2)C[C@H]1COc1ccc(S(C)(=O)=O)cc1 (single isomer, unassigned) [Compound 152, (3S,4R or 3R, 4S)-1-[2-(3-chlorophenyl)-ethyl]-3-[(4-methanesulfon-ylphenoxy)meth-yl]-4-methyl-pyrrolidine] | 1990 | 4720
CS(=O)(=O)c1ccc(OCC2(O)CCCN(CCc3cccc(Cl)c3)C2)cc1 (stereo not drawn) [Compound 4, 1-(3-chlorophenethyl)-3-((4-(methylsulfonyl)phenoxy)methyl) piperidin-3-ol] | 1070 | 2350
C[C@@H]1CN(CCc2cccc(C#N)c2)C[C@H]1COc1ccc(S(=O)(=O)CCCS(C)(=O)=O)cc1 [Compound 168, 3-{2-[(3S,4S)-3-{[4-(3-methanesulfonylpro-panesulfonyl)phe-noxy]methyl}-4-methylpyrrolidin-1-yl]ethyl}benzonitrile] | 179 | 126
CN(c1ccc(OC[C@@H](O)CNCCc2cccc(Cl)c2)cc1)S(C)(=O)=O [Compound 86, (S)-N-(4-(3-((3-chlorophenethyl)a-mino)-2-hydroxypropoxy)phe-nyl)-N-methylmethanesulfon-amide] | 557 | > 4110
CC1(O)CN(CCc2cccc(Cl)c2)CC1COc1ccc(S(C)(=O)=O)cc1 (racemic) [Compound 208, rac-trans-1-[2-(3-chlorophenyl)ethyl]-4-[(4-methanesulfonylphenoxy)methyl]-3-methylpyrrolidin-3-ol] | < 420 | 3570
CC(C)(Cc1cccc(Cl)c1)NC[C@@H](O)COc1ccc(S(C)(=O)=O)cc1 [Compound 97, (R)-1-((1-(3-chlorophenyl)-2-methylpropan-2-yl)amino)-3-(4-(methylsulfonyl)phe-noxy)propan-2-ol] | 314 | 460
O=S(=O)(c1ccc(OC[C@@H]2CN(CCc3cccc(Cl)c3)CCN2)cc1)C1CNC1 [Compound 185, (3S)-3-{[4-(azetidine-3-sulfonyl)phenoxy]methyl}-1-[2-(3-chlorophenyl)ethyl]piperazine] | 322 | 239
CS(=O)(=O)c1ccc(CCC2CCCN(CCc3cccc(Cl)c3)C2)cc1 (stereo not drawn) [Compound 39, 1-(3-chlorophenethyl)-3-(4-(methylsulfonyl)phenethyl)piperidine] | 249 | 904
CS(=O)(=O)c1ccc(OCC2CN(CCc3cccc(Cl)c3)CCC2O)cc1 (racemic) [Compound 28, rac-cis or trans-1-(3-chlorophenethyl)-3-((4-(methylsulfonyl)phenoxy)methyl)piperidin-4-ol] | 2000 | 2340
C[C@@H]1CN(CCc2cc(Cl)cc(C#N)c2)C[C@H]1COc1ccc(S(=O)(=O)C2CNC2)cc1 [Compound 173, 3-{2-[(3S,4S)-3-{[4-(azetidine-3-sulfonyl)phenoxy]methyl}-4-methylpyrrolidin-1-yl]ethyl}-5-chlorobenzonitrile] | 491 | 201
CS(=O)(=O)c1ccc(OCC2CCCCN(CCc3cccc(Cl)c3)C2)cc1 (stereo not drawn) [Compound 1, 1-(3-chlorophenethyl)-3-((4-(methylsulfonyl)phenoxy)methyl)azepane] | ≤ 253 | 528
C[C@H]1CN(CCc2cccc(Cl)c2)C[C@@H]1COc1ccc(S(=O)(=O)CCCS(C)(=O)=O)cc1 (racemic) [Compound 175, rac-trans-1-[2-(3-chlorophenyl)eth-yl]-3-{[4-(3-methanesulfonylpro-panesulfonyl)phe-noxy]methyl}-4-methylpyrrolidine] | < 72.8 | 143
C[C@@H]1C[C@H](COc2ccc(S(C)(=O)=O)cc2)CN1CC(O)c1cc(Cl)cc(C#N)c1 (single isomer, unassigned) [Compound 115, 3-chloro-5-[(1R or 1S)-1-hydroxy-2-[(2R,4S)-4-[(4-methanesulfonylphenoxy)methyl]-2-methylpyrrolidin-1-yl]ethyl] benzonitrile] | 756 | 44.7
C[C@@H]1CN(CC(O)c2cccc(Cl)c2)C[C@H]1COc1ccc(S(C)(=O)=O)cc1 (stereo partly drawn) [Compound 123, 1-(3-chlorophenyl)-2-((3S,4S)-3-methyl-4-((4-(methylsulfonyl)phenoxy)methyl)pyrrolidin-1-yl)ethan-1-ol] | 376 | 300
CS(=O)(=O)c1ccc(OC[C@@H](O)CN[C@H]2C[C@H](c3cccc(Cl)c3)C2)cc1 [Compound 66, (S)-1-((trans-3-(3-chlorophenyl)cyclo-butyl)amino)-3-(4-(methylsulfonyl)phe-noxy)propan-2-ol] | 468 | 1380

Further lines, with some results ahead:

AC50 (APOL1 G2 [2]) [nM] | Structure (SMILES) | EC50 (APOL1 G2 [1]) [nM]
3340 | CS(=O)(=O)c1ccc(OC[C@H]2CN(CCc3cccc(Cl)c3)CCN2)cc1 [Compound 14, (R)-1-(3-chlorophenethyl)-3-((4-(methylsulfonyl)phenoxy)methyl)piperazine] | > 30000
2390 | CN(c1ccc(OCC2CN(CCc3cccc(Cl)c3)CCCO2)cc1)S(C)(=O)=O (single isomer, unassigned) [Compound 12, (S) or (R)-N-(4-((4-(3-chlorophenethyl)-1,4-oxazepan-2-yl)methoxy)phenyl)-N-methylmethane-sulfonamide] | 3000
> 159 | C[C@H]1CN(CCc2cccc(Cl)c2)C[C@@H]1COc1ccc(S(=O)(=O)CCO)cc1 (single isomer, unassigned) [Compound 112, 2-(4-{[(3R,4R or 3S,4S)-1-[2-(3-chlorophenyl)ethyl]-4-methylpyrrolidin-3-yl]methoxy}benzene-sulfonyl)ethan-1-ol] | 29.8
229 | C[C@@H]1C[C@H](COc2ccc(S(C)(=O)=O)cc2)CN1CC(O)c1cccc(Cl)c1 (single isomer, unassigned) [Compound 215, (1S) or (1R)-1-(3-chlorophenyl)-2-[(2R,4S)-4-[(4-methanesulfonylphenoxy)methyl]-2-methylpyrrolidin-1-yl]ethan-1-ol] | 42.2
215 | CS(=O)(=O)CCCS(=O)(=O)c1ccc(OC[C@@H]2CN(CCc3cccc(Cl)c3)CCN2)cc1 [Compound 184, (3S)-1-[2-(3-chlorophenyl)ethyl]-3-{[4-(3-methanesulfonylpropanesulfonyl)phenoxy]methyl}piperazine] | 622
477 | CC1(C)CC(COc2ccc(S(C)(=O)=O)cc2)CN1CCc1cccc(Cl)c1 (stereo not drawn) [Compound 42, 1-(3-chlorophenethyl)-2,2-dimethyl-4-((4-(methylsulfonyl)phenoxy)methyl) pyrrolidine] | 59
1450 | CS(=O)(=O)c1ccc(OC[C@@H]2CN(CCc3cc(C#N)cc(C(F)(F)F)c3)CCN2)cc1 [Compound 193, 3-{2-[(3S)-3-[(4-methanesulfonylphenoxy)methyl]piperazin-1-yl]ethyl}-5-(trifluoromethyl)benzonitrile] | 782
> 10000 | CC1CC(COc2ccc(S(C)(=O)=O)cc2)CN1CCc1cccc(C#N)c1 (single isomer, unassigned) [Compound 137, 3-{2-[(2S,4R or 2R,4S or 2R,4R or 2S,4S)-4-[(4-methanesulfon-ylphenoxy)meth-yl]-2-methyl-pyrrolidin-1-yl]-ethyl}benzo-nitrile] | 4620
10100 | CS(=O)(=O)c1ccc(OCC2(O)CCCN(CCc3cccc(Cl)c3)C2)cc1 (single isomer, unassigned) [Compound 5, (R) or (S)-1-(3-chlorophenethyl)-3-((4-(methylsulfonyl)phenoxy)methyl) piperidin-3-ol] | 5370
